pIC50: −log10 of the molar value. Like-named read-outs stand apart in the source and are kept apart here. Bridge positions count the residues as written; N and C are the ends. Peptide text beside a SMILES is read from it.
Columns and labels:
Kv1.3 = biological target: T1, Kv1.3 (Mus musculus, UniProt P16390); assay: Whole-cell voltage-clamp of Kv currents in cultured stimulated microglia; assay type: cell-based; conditions: read-out: IC50 on microglial Kv current
T1 construct: pharmacological characterization of currents from cultured microglia stimulated for 48 hours with AbO or LPS; endogenous in cells; host or cells: primary microglia cultured from newborn C57Bl/6 mice, stimulated 48 h with AbO or LPS
T1 sequence (P16390 whole entry): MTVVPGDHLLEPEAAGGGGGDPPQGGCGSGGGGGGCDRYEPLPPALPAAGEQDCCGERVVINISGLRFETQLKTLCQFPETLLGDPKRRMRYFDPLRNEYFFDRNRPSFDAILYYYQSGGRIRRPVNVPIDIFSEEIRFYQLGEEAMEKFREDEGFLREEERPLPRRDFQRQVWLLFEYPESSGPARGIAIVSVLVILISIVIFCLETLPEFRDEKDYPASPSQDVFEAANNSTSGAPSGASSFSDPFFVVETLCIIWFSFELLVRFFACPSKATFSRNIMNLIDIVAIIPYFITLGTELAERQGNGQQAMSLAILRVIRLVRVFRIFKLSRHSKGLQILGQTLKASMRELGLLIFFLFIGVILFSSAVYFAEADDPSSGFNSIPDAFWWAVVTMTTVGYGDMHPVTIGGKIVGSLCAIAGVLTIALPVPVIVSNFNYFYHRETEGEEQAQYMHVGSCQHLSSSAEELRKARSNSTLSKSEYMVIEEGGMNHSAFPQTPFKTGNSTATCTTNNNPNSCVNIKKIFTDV
Procedure: In order to determine if Kv1.3 is indeed functionally expressed in mouse microglia Applicants performed electrophysiological experiments on cultured mouse microglia in the whole-cell mode of the patch-clamp technique. Kv currents were elicited with 500 millisecond pulses from a holding-potential of −100 mV to +40 mV applied every 45 sec.
Microglia cultured from newborn C57B1/6 mice were treated with lipopolysaccharides (LPS) or AbO for 24 or 48 hrs. […] Kv currents were elicited by 500 ms voltage steps from −80 to 40 mV (representative traces on right).

microglia = assay: Abeta uptake (phagocytosis) assay in microglia by flow cytometry; assay type: cell-based; conditions: 2 hrs pre-treatment
Text: Using an Aβ uptake assay, Applicants pretreated microglia with either control (vehicle only), anti-SRA (scavenger receptor A) antibody, doxycycline or PAP-1. FIG. 2 is a bar graph showing cell-associated fluorescence as measured by flow cytometry after 2 hrs of such pre-treatment. (n=3, *p<0.01 and **p<0.001 compared with control).

[1] = tested on: AβO-stimulated cultured microglia; assay: AbetaO-induced microglial neurotoxicity (cultured microglia); assay type: cell-based, mouse; conditions: co-treating AβO-stimulated cultured microglia; AβO 20 nM, PAP-1 1 μM
Text: (§1) Measurements were made in the conditioned medium and normalized to the amount of total cellular protein in each culture. n=4-6, *p<0.001 compared with control, **p<0.001 compared with the “AβO” group. […] NO released by AβO-treated microglia is the major soluble mediator of AβO-induced microglial neurotoxicity.

[2] = rats; cited from earlier work
cultured mouse microglia = assay: Abeta-induced activation of cultured mouse microglia (proliferation, morphology, NFkB, NO, TNF-alpha); assay type: cell-based
Procedure: FIGS. 1A and 1B show data regarding AβO-induced NFκ-B and NO, respectively.
Two (2) hours after administration of the indicated treatment, the mouse brains were sectioned and immunostained with an antibody for p65 of NFκB to mark cells with NFκB activation. Numbers of p65-positive cells per 200 DAPI-labeled cells were determined.
as §1

hippocampal slices = assay: Hippocampal slices: AbetaO-induced microglia activation and neuronal damage; assay type: cell-based, mouse; conditions: AβO 20 nM, PAP-1 1 μM
Text: Three consecutive hippocampal slices were obtained from mouse brain and from mice received the same indicated treatment. One slice was used for CD11b staining (green) for activated microglia (slices outlined by Hoechst stain), one for propidium iodide (PI) uptake, and one for Fluoro-Jade C stain for neuronal damage. DG: dentate gyrus.

[3] = rhesus macaques; cited from earlier work
[4] = cited from earlier work
[5] = rodents or primates; cited from earlier work
[6] = tested on: rat hippocampal slices (CA1 LTP); assay: CA1 LTP induction in rat hippocampal slices with AbO; assay type: cell-based; conditions: PAP-1 10 μM pretreatment 30 min prior to AbO 50 nM; 45 min after HFS
Procedure: FIG. 7 summarizes an experiment wherein, under control conditions, CA1 LTP was induced by high frequency stimulation (HFS), which consists of 4 trans of 100Hz basal intensity stimulation lasting for 1 s per train. In control (vehicle only) group, following the HFS, the amplitude or slope of fEPSP was increased to 209±28% of baseline at 45 min after HFS. The bath application of AbO (50 nM) for 10 min blocked the induction of LTP (126±6.7% of control). […] The mean of five consecutive measurements at the end of LTP induction (45 min) was normalized to the baseline (100%) which was the mean of five consecutive measurements just before the HFS.

SMILES | pIC50 (Kv1.3; cultured microglia stimulated for 48 hours with AbO) | pIC50 (Kv1.3; cultured microglia stimulated for 48 hours with LPS) | Aβ cell-associated fluorescence (ability of microglia to phagocytose Aβ) (microglia) | AβO-induced microglial neurotoxicity [1] | half-life [2] [h] | signs of microglia activation induced by AβO (proliferation, morphological transformation, NFκ-B activation, NO production) (cultured mouse microglia; cultured mouse microglia, AβO 20 nM, PAP-1 1 μM) | increased microglia release of tumor necrosis factor-α, NFκ-B activation and NO production induced by fAβ stimulation (cultured mouse microglia; fAβ stimulation) | AβO-induced microglia activation (CD11b staining) (hippocampal slices) | AβO-induced neuronal damage (propidium iodide uptake and Fluoro-Jade C staining) (hippocampal slices) | half-life [3] [h] | oral bioavailability ([4]; in vivo, po) | brain concentrations versus plasma concentrations (crosses the blood brain barrier) ([4]; pharmacokinetic studies) | long-term toxicity [5] | inhibition by AbO of the induction of CA1 LTP [6]
CC[C@H](C)[C@H](NC(=O)[C@@H](N)[C@@H](C)O)C(=O)N[C@H](C(=O)N[C@@H](CC(N)=O)C(=O)N[C@H](C(=O)N[C@@H](CCCCN)C(=O)N[C@H]1CSSC[C@@H]2NC(=O)[C@H](CCCCN)NC(=O)[C@H](C)NC(=O)CNC(=O)[C@H](C)NC(=O)[C@H](CO)NC(=O)[C@H](CCC(N)=O)NC(=O)CNC(=O)[C@H](Cc3ccccc3)NC(=O)[C@H](CCC(N)=O)NC(=O)[C@H](C)NC(=O)[C@H](CCCCN)NC(=O)[C@@H]3CSSC[C@@H](C(=O)N[C@@H](Cc4ccc(O)cc4)C(=O)N4CCC[C@H]4C(=O)N[C@@H](Cc4c[nH]cn4)C(=O)O)NC(=O)[C@H](CCCCN)NC(=O)[C@H](CSSC[C@H](NC(=O)[C@H](CCC(N)=O)NC(=O)[C@H](CCCCN)NC(=O)[C@@H]4CCCN4C(=O)[C@H](CO)NC(=O)[C@H]([C@@H](C)O)NC1=O)C(=O)N[C@@H](CC(C)C)C(=O)N1CCC[C@H]1C(=O)N1CCC[C@H]1C(=O)N3)NC(=O)[C@H](CCCCN)NC(=O)CNC(=O)[C@H](CC(N)=O)NC(=O)[C@H](CCSC)NC2=O)C(C)C)[C@@H](C)CC [MgTX] (H-TIINVKCTSPKQCLPPCKAQFGQSAGAKCMNGKCKCYPH-OH; disulfide 7-29, 13-34, 17-36 (inferred); N-terminus and C-terminus assumed) | 10.10 | 10.10 |  |  |  |  |  |  |  |  |  |  |  | 
O=c1ccc2c(OCCCCOc3ccccc3)c3ccoc3cc2o1 [PAP-1, 5-(4-Phenoxybutoxy)psoralen] |  |  | did not impair | blocked | 3 | inhibited | blocked | substantially reduced | blocked | 6.7 | orally bioavailable | equal or slightly exceed plasma-concentrations | has not exhibited long-term toxicity | prevented

— patent publication US20140171455A1, “Reduction of Microglia-Mediated Neurotoxicity by Kv1.3 Inhibition” (The Regents of the University of California, priority 2011, published 2014)
